Laboratory results taken from publication PMC10983001, “Development of Cytotoxic GW7604-Zeise’s Salt Conjugates as Multitarget Compounds with Selectivity for Estrogen Receptor- Positive Tumor Cells” (Journal of Medicinal Chemistry, 2024).
Read-outs that look alike come from different tables or passages of the source. Each block holds one molecule with its values, some of them ahead of it.

Legend:
[1] = tested on: MCF-7 cells; test: MTT assay of metabolic activity, MCF-7; assay type: cell-based, human; conditions: Homo sapiens
Procedure: The GW7604-Alk-PtCl3 complexes (with exclusion of GW7604-Prop-PtCl3) were investigated for cytotoxic effects in SKBr3 (ER-negative, COX-2-positive, Figure 6), MCF-7 (ERα-positive, COX-negative, Figure 6), and noncancerous TSA-201 (human embryonal kidney) cells at concentrations of 10–30 μM using an established MTT (3-(4,5-dimethylthiazol-2-yl)-2,5-diphenyltetrazolium bromide) assay.[60],[69]
After incubation for 72 h, the amounts of surviving, metabolically active cells were quantified based on their ability to transform the water-soluble yellow dye MTT to a purple formazan, which can be analyzed by UV–vis spectroscopy.
The exponentially growing cells were seeded at a density of 1750 (MCF-7), 2000 (SKBr3), and 1250 (TSA-201) cells/well into clear flat-bottom 96-well plates in triplicate. Following 24 h of incubation at 37 °C in a humidified atmosphere (5% CO2/95% air), the compounds [freshly prepared stock solutions in DMF, diluted with DMEM to the desired concentration (final DMF concentration of 0.1% (v/v))] were added to reach the indicated concentrations. After another 72 h of incubation, the cellular metabolic activity was measured employing an MTT assay. By adding predissolved MTT reagent in PBS at a final concentration of 0.5 mg/mL, the metabolic activity can be determined via an enzymatic conversion to a purple formazan salt. After 3 h, the medium was aspirated, and 200 μL of DMSO was added to dissolve the formed formazan crystals. The absorbance was measured at 570 and 690 nm (turbidity assessment) using an EnSpire plate reader (PerkinElmer, Waltham, MA, USA). Solvent-treated cells without a compound served as the positive control. Metabolic activity was calculated by the following equation [drawing 1]

[2] = target: T1, ERα ligand-binding domain (Homo sapiens, UniProt P03372); test: TR-FRET ligand binding assay, isolated LBD of ERα
T1 construct: purchased Invitrogen
T1 sequence (P03372 311-547 limits assumed): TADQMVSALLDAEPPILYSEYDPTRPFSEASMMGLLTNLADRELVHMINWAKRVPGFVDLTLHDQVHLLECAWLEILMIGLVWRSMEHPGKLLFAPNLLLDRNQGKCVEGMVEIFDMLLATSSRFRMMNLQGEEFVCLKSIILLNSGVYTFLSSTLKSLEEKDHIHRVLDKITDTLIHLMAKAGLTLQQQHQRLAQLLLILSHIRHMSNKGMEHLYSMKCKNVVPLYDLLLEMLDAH
Procedure: (§1) A modified LanthaScreen TR-FRET alpha/beta assay was performed, according to the manufacturer’s protocol (Invitrogen, Carlsbad, […]), to determine the binding affinity to the isolated LBD. […] Measurements were carried out on a multimode plate reader, Tecan Spark (Tecan, Männedorf, Switzerland). Calculations and visualization were performed with GraphPad Prism 8.0 (GraphPad Software, San Diego, CA, USA).

[3] = target: T2, ERβ ligand-binding domain (Homo sapiens, UniProt Q92731); test: TR-FRET ligand binding assay, isolated LBD of ERβ
T2 construct: purchased Invitrogen
Procedure: as §1

[4] = MCF7, 72 h, MTT, read-out: IC50 MCF-7

T2 sequence (Q92731 264-498 limits assumed): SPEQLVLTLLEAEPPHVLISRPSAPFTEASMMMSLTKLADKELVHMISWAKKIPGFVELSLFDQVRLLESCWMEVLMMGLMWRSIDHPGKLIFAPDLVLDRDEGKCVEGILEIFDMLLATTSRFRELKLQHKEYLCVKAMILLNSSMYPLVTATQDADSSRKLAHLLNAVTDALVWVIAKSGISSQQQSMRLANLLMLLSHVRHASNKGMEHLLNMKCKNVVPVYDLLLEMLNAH

SMILES: CCC(=C(c1ccc(O)cc1)c1ccc(C=CC(=O)O)cc1)c1ccccc1 (mixture of isomers) [GW7604, (E)-3-(4-((E/Z)-1-(4-hydroxyphenyl)-2-phenylbut-1-en-1-yl)phenyl)acrylic acid]
IC50 ([1]; MCF7, read-out: IC50, reduction of growth of MCF-7 cells): 171 nM

IC50 [1, 4]: > 30000 nM
SMILES: C=CCCOC(=O)/C=C/c1ccc(C(=C(CC)c2ccccc2)c2ccc(O)cc2)cc1 (mixture of isomers) [GW7604-But, But-3-en-1-yl (E)-3-(4-((E/Z)-1-(4-hydroxyphenyl)-2-phenylbut-1-en-1-yl)phenyl) Acrylate]

IC50 [1, 4]: > 30000 nM
SMILES: C=CCCCCOC(=O)/C=C/c1ccc(C(=C(CC)c2ccccc2)c2ccc(O)cc2)cc1 (mixture of isomers) [GW7604-Hex, Hex-5-en-1-yl (E)-3-(4-((E/Z)-1-(4-hydroxyphenyl)-2-phenylbut-1-en-1-yl)phenyl) Acrylate]

RBA (ERα) ([2]; RBA(E2) = 100%): 0.90% | IC50 ([2]; read-out: IC50 (ERα), displacement from the LBS): 39.1 nM | IC50 [1, 4]: > 30000 nM | RBA (ERβ) ([3]; RBA(E2) = 100%): 0.23% | IC50 ([3]; read-out: IC50 (ERβ), displacement from the LBS): 105 nM
SMILES: C=CCCCOC(=O)/C=C/c1ccc(C(=C(CC)c2ccccc2)c2ccc(O)cc2)cc1 (mixture of isomers) [GW7604-Pent, Pent-4-en-1-yl (E)-3-(4-((E/Z)-1-(4-hydroxyphenyl)-2-phenylbut-1-en-1-yl)phenyl) Acrylate]
